Source: patent US20160083424A1, “COMPOSITIONS AND METHODS FOR TARGETING ANTIGEN-PRESENTING CELLS” (OSLO UNIVERSITETSSYKEHUS HF, priority 2013, published 2016)

Experiments:
[1] = system: autologous CD4 or CD8 T cells; experiment: Autologous stimulation of T lymphocytes by DCs exposed to targeted pp65 peptides, [3H] thymidine incorporation; assay type: cell-based, human; settings: semi mDCs loaded at 4° C., HLA-A2+/CMV positive donors, 5 days
Protocol: (§1) Peptides at a concentration of 5 μg/ml were incubated with semi mDCs from HLA-A2/CMV-positive donors for 60 min at 4° C. Subsequently, they were washed to remove unbound peptides. Autologous stimulation was done in 96-well tissue culture plates in X-vivo 15 medium. Briefly, DCs were mixed with 10^5 autologous CD4 or CD8 T cells at a DC/lymphocytes ratios of 1/5 and 1/10 in a final volume of 250 μl. Cells were incubated for 5 days and then they were pulsed with [^3H] thymidine and harvested 16 h later. [^3H] thymidine incorporation was measured in a β-scintillation counter. In some experiments, the cells were cultured for 8 days and then stained with dextramers specific for pp65 NLVPMVATV (SEQ ID NO:19) epitope.
The capacity of the NW-pp65 fusion peptide (60-mer) to activate T cells from HLA-A2+/CMV positive donors was evaluated. It should be noted that the 48-mer pp65 peptide contains both MHC class I (e.g. NLVPMVATV) (SEQ ID NO:19) and class II (e.g. AGILARNLVPMVATV (SEQ ID NO:23), FFWDANDIYRI (SEQ ID NO:24)) epitopes, allowing the detection of CD4 and CD8 T-cell responses (24-26). […] All cultures were incubated at 37° C. for 5 days and T-cell activation was determined by measuring their proliferation potential (FIG. 6A). […]

[2] = system: CD8 T cells specific for the NLVPMVATV epitope; experiment: Dextramer staining of CD8 T cells after stimulation with peptide-exposed DCs; assay type: cell-based, human; settings: DC-stimulated CD8 T cells, CMV positive donors, equal molar concentrations, n=3
Protocol: as §1
Dextramers with CMV (NLVPMVATV) (SEQ ID NO:19) and HIV (ILKEPVHGV) (SEQ ID NO:22) HLA-A2 specific antigens were obtained from Immudex (Copenhagen, Denmark). Antibodies against human CD8, CD19 and CD56 were obtained from eBioscience (San Diego, Calif., USA). […] Cells were washed and resuspended in SB containing 1% paraformaldehyd and analyzed on a BD SLR II flow cytometer. The data were analyzed using FCS Express (De Novo Software, Los Angeles, Calif., USA).

Sequence: NWYLPWLGTNDWGCFTWPPWQAGILARNLVPMVATVQGQNLKYQEFFWDANDIYRIFAEL [NW-60-mer, 48-mer CMV pp65 peptide fused to NW peptide]
- T-cell activation (proliferation, [3H]-thymidine) [1]: activated both CD8 and CD4 T cells
- dextramer-positive CD8 T cells specific for NLVPMVATV [2]: 10.50%
